Entries after “also recorded” stand apart in the source; their conditions may differ.
Columns and labels:
[1] = test system: cocaine-seeking behavior of rats; details: cited from earlier work
[2] = test system: cocaine-seeking behavior of cocaine-trained rats; assay: Extinction training after cocaine self-administration, daily DHEA; details: DHEA 2 mg/kg IP daily, days 13-22, vs Coc-Vehicle
[3] = test system: gut microbiota in feces of naïve rats; assay: Incubation of feces with cocaine and DHEA in vitro (16S rRNA sequencing, UniFrac, LEfSe)
Procedure: Bacterial taxa differences in fecal samples were analyzed using the Linear discriminant analysis effect size (LEfSe) method as a response for either cocaine or DHEA (0, 50, 100 and 500 μM). Stool of naïve rats was collected into 15 ml test tubes and stored under anaerobic conditions. The stool was homogenized using a vortex and mechanical stirring. After completion of the preparation, the fecal slurry was incubated at 37° C. under anaerobic conditions. Following a week of anaerobic incubation, DNA was extracted from the slurry, and 16S rRNA gene sequencing was performed (protocols described above).

[4] = test system: gut microbiota of cocaine-trained rats; assay: Gut microbiota composition (16S rRNA sequencing, UniFrac, ANCOM) after DHEA during extinction
[5] = test system: gut microbial community of cocaine-trained rats; assay: Gut microbiota throughout cocaine self-administration (beta diversity); details: day 3 vs day 12, p=0.001

Structure (SMILES) | cocaine seeking behavior relative to maintenance levels ([1]; chronic exogenous DHEA 2 mg/kg, previous work) | cocaine-seeking behavior, self-administration model ([1]; pretreatment with DHEA, background) | cocaine-seeking behavior (active lever presses) during extinction [2] | changes in bacterial features (LEfSe) ([3]; DHEA 50 μM) | changes in bacterial features (LEfSe) ([3]; DHEA 100 μM) | gut microbiota composition (weighted UniFrac distances) in vitro ([3]; DHEA 100 μM vs PBS, p=0.036) | R. gnavus among overrepresented bacterial features ([3]; DHEA 500 μM) | number of overrepresented bacterial features (LEfSe) ([3]; DHEA 500 μM vs PBS) | gut microbiota composition (weighted UniFrac distances) in vitro ([3]; DHEA 500 μM vs PBS, p=0.02) | gut microbiota beta diversity (PCoA of unweighted UniFrac distances) ([4]; day 22, coc-DHEA compared with saline-vehicle) | relative abundance of R. gnavus (ANCOM) ([4]; day 22, coc-DHEA vs cocaine-vehicle) | gut microbial community (beta diversity) over cocaine self-administration [5] | number of overrepresented bacterial features (LEfSe) ([3]; cocaine 100 μM vs PBS) | gut microbiota beta diversity (unweighted UniFrac distances) in vitro ([3]; cocaine 100 μM vs PBS, p=0.047) | number of overrepresented bacterial features (LEfSe) ([3]; cocaine 500 μM vs PBS)
C[C@]12CC[C@H](O)CC1=CC[C@@H]1[C@@H]2CC[C@]2(C)C(=O)CC[C@@H]12 [DHEA, dehydroepiandrosterone] | < 20% | attenuated cocaine-seeking behavior | significantly reduced cocaine-seeking behavior | no significant changes | no significant changes | significant change | none of them belonged to R. gnavus; also recorded: not R. gnavus | 16 | significant change | resembled those of rats that received vehicle; also recorded: induces a microbiota more similar to the saline control | increase in the relative abundance of R. gnavus; also recorded: Levels of R. gnavus rose |  |  |  | 
COC(=O)[C@H]1[C@@H](OC(=O)c2ccccc2)C[C@@H]2CC[C@H]1N2C [Cocaine, benzoylmethylecgonine] |  |  |  |  |  |  |  |  |  |  |  | significant change | 12 | significantly changed | 15

Reference: patent publication US20250186510A1, “BACTERIAL COMPOSITION FOR USE IN TREATMENT OF SUBSTANCE USE DISORDER” (Bar-Ilan University, priority 2022, published 2025)
